The values that follow come from DBAASP.

Values after ≈ are worked out from the molar mass of the structure shown.

As a reminder, the MIC is the smallest concentration in the dilution series that meets the test's criterion for growth inhibition.

Among the test systems are Pseudomonas aeruginosa; Staphylococcus aureus; Escherichia coli.
Common to all, as to experiment: ≥ marks a high value that may be exact or a test limit, other limits are often not marked, values filed in µg/mL are converted to µM
For assay [1], the system named is Staphylococcus epidermidis ATCC 12228.
Assay [2] deals with Escherichia coli ATCC 25922.

`CC[C@H](C)[C@H](NC(=O)CN)C(=O)N[C@@H](CCCCN)C(=O)N[C@@H](CCCCN)C(=O)N[C@@H](Cc1c[nH]c2ccccc12)C(=O)N[C@@H](CC(C)C)C(=O)N[C@@H](Cc1cnc[nH]1)C(=O)N[C@@H](CO)C(=O)N[C@@H](C)C(=O)N[C@@H](CCCCN)C(=O)N[C@@H](CCCCN)C(=O)N[C@@H](Cc1ccccc1)C(=O)N1CCC[C@H]1C(=O)N[C@@H](CCCCN)C(=O)N[C@@H](CCCCN)C(=O)N[C@@H](Cc1ccccc1)C(=O)N[C@H](C(=O)N[C@@H](CCCCN)C(=O)N[C@@H](CCCCN)C(=O)N[C@H](C(=O)N[C@@H](CCSC)C(=O)N[C@@H](CC(N)=O)C(=O)N[C@@H](CO)C(N)=O)[C@@H](C)CC)C(C)C` [GIKKWLHSAKKFPKKFVKKIMNS]: the MIC in assay [1] is 0.31 µM (≈ 0.85 µg/mL); in assay [2], 1.25 µM (≈ 3.43 µg/mL).

On to `CC[C@H](C)[C@H](N)C(=O)N[C@@H](CC(N)=O)C(=O)N[C@@H](Cc1c[nH]c2ccccc12)C(=O)N[C@@H](CC(C)C)C(=O)N[C@@H](CCCCN)C(=O)N[C@@H](CC(C)C)C(=O)NCC(=O)N[C@@H](CCCCN)C(=O)N[C@@H](CCCCN)C(=O)N[C@H](C(=O)N[C@@H](CC(C)C)C(=O)NCC(=O)N[C@@H](C)C(=O)N[C@@H](CC(C)C)C(N)=O)[C@@H](C)CC` [INWLKLGKKILGAL], for which the MIC against Pseudomonas aeruginosa is 86.6 µM (≈ 136 µg/mL); in the assay with Staphylococcus aureus, 15.5 µM (≈ 24.3 µg/mL).

As to `CC(C)C[C@H](NC(=O)CNC(=O)[C@H](C)NC(=O)[C@H](CC(C)C)NC(=O)[C@H](CCCCN)NC(=O)[C@H](CCCCN)NC(=O)[C@H](C)NC(=O)[C@H](CC(C)C)NC(=O)CNC(=O)[C@H](C)NC(=O)[C@H](Cc1c[nH]c2ccccc12)NC(=O)[C@H](CCCCN)NC(=O)[C@H](CCCCN)NC(=O)[C@H](C)NC(=O)[C@H](CC(C)C)NC(=O)CNC(=O)[C@H](C)NC(=O)[C@H](CC(C)C)NC(=O)[C@H](CCCCN)NC(=O)[C@@H](N)CCCCN)C(=O)N[C@@H](C)C(N)=O` [KKLAGLAKKWAGLAKKLAGLA], the values for the MIC in the assay on Pseudomonas aeruginosa, in the assay on Escherichia coli and with Staphylococcus aureus were 7.49 µM (≈ 16 µg/mL), 3.74 µM (≈ 8 µg/mL) and 7.49 µM (≈ 16 µg/mL), respectively.

For `CC[C@H](C)[C@H](NC(=O)CN)C(=O)N[C@@H](CCCCN)C(=O)N[C@@H](CCCCN)C(=O)N[C@@H](Cc1c[nH]c2ccccc12)C(=O)N[C@@H](CC(C)C)C(=O)N[C@@H](Cc1cnc[nH]1)C(=O)N[C@@H](CO)C(=O)N1CCC[C@H]1C(=O)N[C@@H](CCCCN)C(=O)N[C@@H](CCCCN)C(=O)N[C@@H](Cc1ccccc1)C(=O)NCC(=O)N[C@@H](CCCCN)C(=O)N[C@@H](CCCCN)C(=O)N[C@@H](Cc1ccccc1)C(=O)N[C@H](C(=O)N[C@@H](CCCCN)C(=O)N[C@@H](CCCCN)C(=O)N[C@H](C(=O)N[C@@H](CCSC)C(=O)N[C@@H](CC(N)=O)C(=O)N[C@@H](CO)C(N)=O)[C@@H](C)CC)C(C)C` [GIKKWLHSPKKFGKKFVKKIMNS], the minimal inhibitory concentration (MIC) in assay [1] worked out at 1.25 µM (≈ 3.41 µg/mL); in assay [2], 2.5 µM (≈ 6.82 µg/mL).

Turning to `CC[C@H](C)[C@H](NC(=O)CN)C(=O)N[C@@H](CCCCN)C(=O)N[C@@H](CCCCN)C(=O)N[C@@H](Cc1c[nH]c2ccccc12)C(=O)N1CCC[C@H]1C(=O)N[C@@H](Cc1cnc[nH]1)C(=O)N[C@@H](CCCCN)C(=O)N1CCC[C@H]1C(=O)N[C@@H](CCCCN)C(=O)N[C@@H](CCCCN)C(=O)N[C@@H](Cc1ccccc1)C(=O)NCC(=O)N[C@@H](CCCCN)C(=O)N[C@@H](CCCCN)C(=O)N[C@@H](Cc1ccccc1)C(=O)N[C@H](C(=O)N[C@@H](CCCCN)C(=O)N[C@@H](CCCCN)C(=O)N[C@H](C(=O)N[C@@H](CCSC)C(=O)N[C@@H](CC(N)=O)C(=O)N[C@@H](CO)C(N)=O)[C@@H](C)CC)C(C)C` [GIKKWPHKPKKFGKKFVKKIMNS], the MIC is 5 µM (≈ 13.8 µg/mL) in assay [1] and 10 µM (≈ 27.5 µg/mL) in assay [2].
